According to patent US10669284B2, “Fused thiazolopyrimidine derivatives as MNKS inhibitors” (LIFEARC, priority 2015, dated 2020):

Columns and labels:
[1] = test system: phosphorylation of eIF4E at ser209 in MV4.11 cell line; assay: MNK cellular activity phospho-eIF4E detection assay (Alphascreen Surefire); type: cell-based; conditions: Homo sapiens; MV4.11 cell line, phospho-eIF4E (ser209) Alphascreen Surefire; read-out: P(IC50) elF4E (converted)
Procedure, shortened: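 AlphaScreen SureFire sandwich-immunoassay readout of phospho-eIF4E Ser209 in lysed MV4.11 cells; acceptor then donor beads, each 1.5 hr at room temperature. Signal normalised to untreated DMSO-only controls; duplicate curves, values averaged over at least 2 independent experiments.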

Full-length human MNK2 = target: T1, Full-length human MNK2 (Homo sapiens, UniProt Q9HBH9, T379D); assay: MNK2 biochemical IC50 assay (Caliper Mobility Shift Assay); conditions: read-out: P(IC50) MNK2 (converted)
T1 construct: GST (N); purchased Carna Biosciences 02-146; host or cells: baculovirus expression system
T1 sequence (Q9HBH9 whole entry T379D): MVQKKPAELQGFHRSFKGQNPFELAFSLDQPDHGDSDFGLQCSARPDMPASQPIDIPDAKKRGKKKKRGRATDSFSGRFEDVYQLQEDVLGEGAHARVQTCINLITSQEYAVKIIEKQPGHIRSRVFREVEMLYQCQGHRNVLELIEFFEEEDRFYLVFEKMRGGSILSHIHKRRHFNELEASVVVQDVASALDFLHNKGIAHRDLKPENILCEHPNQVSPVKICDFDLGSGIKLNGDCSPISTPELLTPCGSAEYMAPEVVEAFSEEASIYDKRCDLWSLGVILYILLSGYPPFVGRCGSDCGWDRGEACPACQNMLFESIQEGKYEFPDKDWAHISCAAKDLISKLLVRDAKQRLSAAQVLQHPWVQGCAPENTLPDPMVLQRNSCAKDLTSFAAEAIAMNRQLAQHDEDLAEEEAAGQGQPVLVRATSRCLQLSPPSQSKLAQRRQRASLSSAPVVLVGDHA

Full-length human MNK1 = target: T2, Full-length human MNK1 (Homo sapiens, UniProt Q9BUB5, T385D); assay: MNK1 biochemical IC50 assay (Caliper Mobility Shift Assay); conditions: read-out: P(IC50) MNK1 (converted)
T2 construct: GST (N); purchased Carna Biosciences 02-145; host or cells: baculovirus expression system
T2 sequence (Q9BUB5 1-424 isoform Q9BUB5-2 T344D): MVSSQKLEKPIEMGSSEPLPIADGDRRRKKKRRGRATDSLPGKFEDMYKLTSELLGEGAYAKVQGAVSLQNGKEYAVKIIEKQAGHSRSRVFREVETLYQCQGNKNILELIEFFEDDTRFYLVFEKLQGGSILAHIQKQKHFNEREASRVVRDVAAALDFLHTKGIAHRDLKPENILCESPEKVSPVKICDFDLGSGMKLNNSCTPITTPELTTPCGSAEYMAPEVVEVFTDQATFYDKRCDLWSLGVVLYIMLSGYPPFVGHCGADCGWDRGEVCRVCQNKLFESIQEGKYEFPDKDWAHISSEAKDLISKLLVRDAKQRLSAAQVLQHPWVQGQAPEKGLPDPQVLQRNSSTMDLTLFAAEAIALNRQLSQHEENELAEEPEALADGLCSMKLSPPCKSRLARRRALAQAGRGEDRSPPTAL

Structure (SMILES)	IC50 [1] [nM]	IC50 (Full-length human MNK2) [nM]	IC50 (Full-length human MNK1) [nM]
CC(C)Oc1cc(F)ccc1Nc1ncnc2sc(C(=O)NCC3CCOCC3)nc12 [Example 38, 7-{[4-fluoro-2-(propan-2-yloxy)phenyl]amino}-N-(tetrahydro-2H-pyran-4-ylmethyl)[1,3]thiazolo[5,4-d]pyrimidine-2-carboxamide]	79.4	63.1	100
O=C(NC1CCNCC1)c1nc2c(N3CCc4cc(F)ccc43)ncnc2s1 [Example 78, 7-(5-fluoroindolin-1-yl)-N-(4-piperidyl)thiazolo[5,4-d]pyrimidine-2-carboxamide]	3.16	2	2
CN(C)CCCNC(=O)c1nc2c(N3CCc4cccc(F)c43)ncnc2s1 [Example 92, N-[3-(dimethylamino)propyl]-7-(7-fluoroindolin-1-yl)thiazolo[5,4-d]pyrimidine-2-carboxamide]	251	126	158
CN(C)CCCNC(=O)c1nc2c(Nc3ccc(F)cc3O[C@H]3CCCC[C@@H]3O)ncnc2s1 [Example 19, N-[3-(dimethylamino)propyl]-7-[4-fluoro-2-[(1S,2S)-2-hydroxycyclohexoxy]anilino]thiazolo[5,4-d]pyrimidine-2-carboxamide]	251	794	794
Fc1ccc2c(c1)CCN2c1ncnc2sc(N3CCOCC3)nc12 [Example 87, 4-[7-(5-fluoroindolin-1-yl)thiazolo[5,4-d]pyrimidin-2-yl]morpholine]	200	79.4	126
CN(C)CCCNC(=O)c1nc2c(Nc3ccc(F)cc3O[C@H]3CCCOC3)ncnc2s1 [Example 17, N-[3-(dimethylamino)propyl]-7-[4-fluoro-2-[(3S)-tetrahydropyran-3-yl]oxy-anilino]thiazolo[5,4-d]pyrimidine-2-carboxamide]	100	100	126
CN(C)CCCNC(=O)c1nc2c(Nc3ccc(F)cc3O[C@@H]3CCCOC3)ncnc2s1 [Example 16, N-[3-(dimethylamino)propyl]-7-[4-fluoro-2-[(3R)-tetrahydropyran-3-yl]oxy-anilino]thiazolo[5,4-d]pyrimidine-2-carboxamide]	158	100	100

The remaining lines, values ahead:

IC50 [1] [nM]	IC50 (Full-length human MNK2) [nM]	IC50 (Full-length human MNK1) [nM]	Structure (SMILES)
3.98	3.98	3.16	CC1CN(c2ncnc3sc(C(=O)NC4CCOCC4)nc23)c2ccccc21 (stereo not drawn) [Example 125, 7-(3-Methylindolin-1-yl)-N-tetrahydropyran-4-yl-thiazolo[5,4-d]pyrimidine-2-carboxamide]
63.1	6.31	5.01	NCCC1CN(c2ncnc3sc(C(=O)NC4CCOCC4)nc23)c2ccccc21 (stereo not drawn) [Example 111, 7-[3-(2-aminoethyl)indolin-1-yl]-N-tetrahydropyran-4-yl-thiazolo[5,4-d]pyrimidine-2-carboxamide]
10	10	10	O=C(NC1CCOCC1)c1nc2c(N3CC(CCO)c4ccccc43)ncnc2s1 (stereo not drawn) [Example 110, 7-[3-(2-hydroxyethyl)indolin-1-yl]-N-tetrahydropyran-4-yl-thiazolo[5,4-d]pyrimidine-2-carboxamide]
79.4	12.6	20	CNCCCNC(=O)c1nc2c(N3c4ccccc4C[C@H]3C)ncnc2s1 [Example 128, N-[3-(methylamino)propyl]-7-[(2R)-2-methylindolin-1-yl]thiazolo[5,4-d]pyrimidine-2-carboxamide]
50.1	39.8	79.4	C[C@H]1Cc2ccccc2N1c1ncnc2sc(C(=O)NC3CCOCC3)nc12 [Example 133, 7-[(2S)-2-methylindolin-1-yl]-N-tetrahydropyran-4-yl-thiazolo[5,4-d]pyrimidine-2-carboxamide]
15.8	5.01	12.6	O=C(NC1CC1)c1nc2c(N3CCc4ccccc43)ncnc2s1 [Example 99, N-cyclopropyl-7-indolin-1-yl-thiazolo[5,4-d]pyrimidine-2-carboxamide]
